Experimental findings from patent US20250288704A1, “CXCR4-LIGANDS FOR DIAGNOSTIC AND THERAPEUTIC USE AND PRECURSORS THEREOF” (priority 2021, published 2025) are described below.

Like-named read-outs stand apart in the source and are kept apart here. Positions of bridges follow the written chain, without caps; N, C: chain ends. Non-standard residues stand in square brackets, D forms with d. Residues, ends and D or L forms follow the SMILES beside them. Groups on a side chain read outwards from the residue. Chains are numbered I, II in the order given. *: point of attachment. X2 = OC[C@H]1O[C@@H](O[C@H]2[C@H](O)[C@@H](O)[C@H](*)O[C@@H]2CO)[C@H](O)[C@@H](O)[C@H]1O; X5 = CC(C)(C)[Si](F)(c1ccc(C[N+](C)(C)CC(=O)*)cc1)C(C)(C)C; DOTA = O=C(O)CN1CCN(CC(=O)O)CCN(CC(=O)*)CCN(CC(=O)O)CC1; dTyr(3-I) = N[C@H](Cc1ccc(O)c(I)c1)C(=O)O; 2Nal = N[C@@H](Cc1ccc2ccccc2c1)C(=O)O; dNMeOrn = CN[C@H](CCCN)C(=O)O; d(hCys) = N[C@H](CCS)C(=O)O; 4Amb = NCc1ccc(C(=O)O)cc1; 4Abz = Nc1ccc(C(=O)O)cc1; dDap = NC[C@@H](N)C(=O)O; Ahx = NCCCCCC(=O)O

Data set [1] can be described thus: Biodistribution in Jurkat tumor-bearing CB-17 SCID mice. It is filed as in vivo. As to conditions: female, CB-17 SCID, mouse, in vivo, iv, total radioactivity. As for the experimental part: All animal experiments were conducted in accordance with general animal welfare regulations in Germany and the institutional guidelines for the care and use of animals. To establish tumor xenografts, Jurkat cells (2-3×10^7 cells) were suspended in a mixture of Gibco's RPMI 1640 medium and Matrigel (1/1; v/v) from BD Biosciences (Heidelberg, Germany), and inoculated subcutaneously onto the right shoulder of 6-10 weeks old CB17-SCID mice from either Charles River GmbH (Sulzfeld, Germany) or the in-house mouse breeding facility. Mice were used when tumors had grown to a diameter of 5-8 mm (4-10 weeks after inoculation).
Approximately 0.5-20 MBq (0.02-0.20 nmol) of the ^125I-, ^177Lu-, ^99mTc-, ^18F- or ^68Ga-labeled ligand were injected into the tail vein of Jurkat tumor-bearing CB-17 SCID mice and the animals sacrificed after the respective biodistribution time. Selected organs were removed, weighted and measured in a γ-counter.

Data set [2] can be described thus: Octanol/PBS partition coefficient (logD7.4). In kind it is physicochemical. Particulars: n-octanol/PBS pH 7.4, radiolabeled compound. Here is the method: The tubes were vortexed at maximum speed for 3 min to ensure equilibrium before centrifugation at 15.000×g for 5 min on a Biofuge 15 from Heraeus Holding GmbH (Osterode, Germany). An aliquot of 100 μL of each fraction was measured in the γ-counter and the log D7.4 calculated as follows: […]

Data set [3] has as its system CXCR4-expressing Chem_1 cells. In words: Determination of internalization, dual tracer with 125I-Fc-131. Particulars: for Cell-bound [%] / Internalized [%]: of total cellular activity. In kind it is cell-based. As for the experimental part: CXCR4-expressing Chem_1 cells were grown in DMEM-F12 medium supplemented with 10 vol % FBS, 1 vol % NEA, 1 vol % PenStrep and 1 vol % HEPES (1.00 M). Cells were maintained in a 5% CO2 atmosphere at 37° C.
For in vitro experiments, cells were harvested by removal of the medium and incubation of the cells with trypsine/EDTA (0.05%/0.02%; w/v) for 30 in at 37° C.
Each well (n=3 for every time point) was either treated with 25 μL DMEM-F12 (+5 wt % BSA) or 25 μL of an AMD3100 stock (1 mM in H2O) for blockage of the receptors.
The experiment was stopped by placing the well-plate on ice and removing the supernatant. The cells were washed with 250 μL cold HBSS and the both fractions for each well combined, comprising the amount of unbound radioligand.
The supernatant was removed, the cells washed with cold HBSS and the respective fractions combined to obtain the amount of surface-bound radioligand.
The cells were then incubated with 300 μL NaOH (1.00 M in H2O) for at least 30 at r.t. before the supernatant was removed. The well was washed with another 300 μL NaOH and the fractions combined that contain the amount of internalized radioligand.
The three different fractions were subjected to activity measurement in the γ-counter, measuring the activity of the radionuclide used for the labeling of the peptide under investigation first. […] Data was corrected for non-specific internalization and referred to the specific internalization of the standard ligand

In the case of `C[C@@H](NC(=O)[C@@H](CCCNC(=N)N)NC(=O)[C@@H](CN)NC(=O)CN1CCN(CC(=O)O)CCN(CC(=O)O)CCN(CC(=O)O)CC1)C(=O)NCc1ccc(C(=O)NCCC[C@@H]2C(=O)N[C@@H](CCCNC(=N)N)C(=O)N[C@@H](Cc3ccc4ccccc4c3)C(=O)NCC(=O)N[C@H](Cc3ccc(O)cc3)C(=O)N2C)cc1` [CXCR4-DOTA-1 [Lu]] (cyclo([dY][dNMeOrn]([4Amb-dA-dR-dDap-DOTA])R[2Nal]G)), the tissue uptake at 1 h came to 1.24 %ID/g in data set [1] (% iD/g Blood); 0.72 %ID/g in data set [1] (% iD/g Bone); 0.73 %ID/g in data set [1] (% iD/g Heart); 0.67 %ID/g in data set [1] (% iD/g Intestine); 18.8 %ID/g in data set [1] (% iD/g Kidney); 11 %ID/g in data set [1] (% iD/g Liver). Further, the tissue uptake at 1 h is 2.16 %ID/g in data set [1] (% iD/g Lung); 0.22 %ID/g in data set [1] (% iD/g Muscle); 0.39 %ID/g in data set [1] (% iD/g Pancreas); 3.19 %ID/g in data set [1] (% iD/g Spleen); 1.06 %ID/g in data set [1] (% iD/g Stomach); 5.98 %ID/g in data set [1] (% iD/g Tumor).

Consider `C[C@@H](NC(=O)[C@@H](CCCNC(=N)N)NC(=O)[C@@H](CN)NC(=O)CN1CCN(CC(=O)O)CCN(CC(=O)O)CCN(CC(=O)O)CC1)C(=O)Nc1ccc(C(=O)NCCC[C@@H]2C(=O)N[C@@H](CCCNC(=N)N)C(=O)N[C@@H](Cc3ccc4ccccc4c3)C(=O)NCC(=O)N[C@H](Cc3ccc(O)cc3)C(=O)N2C)cc1` [CXCR4-DOTA-3 [Ga]] (cyclo([dY][dNMeOrn]([4Abz-dA-dR-dDap-DOTA])R[2Nal]G)), for which the logD7.4 in data set [2] is −3.35 ± 0.08 (5).

Take `C[C@@H](NC(=O)[C@@H](CCCNC(=N)N)NC(=O)[C@@H](CN)NC(=O)CN1CCN(CC(=O)O)CCN(CC(=O)O)CCN(CC(=O)O)CC1)C(=O)Nc1ccc(C(=O)NCCC[C@@H]2C(=O)N[C@@H](CCCNC(=N)N)C(=O)N[C@@H](Cc3ccc4ccccc4c3)C(=O)NCC(=O)N[C@H](Cc3ccc(O)c(I)c3)C(=O)N2C)cc1` [CXCR4-DOTA-4 [Ga]] (cyclo([dTyr(3-I)][dNMeOrn]([4Abz-dA-dR-dDap-DOTA])R[2Nal]G)): in data set [2], the logD7.4 was −2.65 ± 0.22 (6).

For the compound `C[C@@H](NC(=O)[C@@H](CCCNC(=N)N)NC(=O)[C@@H](CN)NC(=O)CCCCCNC(=O)[C@@H](CNC(=O)CN1CCN(CC(=O)O)CCN(CC(=O)O)CCN(CC(=O)O)CC1)NC(=O)[C@@H](CCS[C@@H]1O[C@H](CO)[C@@H](O[C@@H]2O[C@H](CO)[C@H](O)[C@H](O)[C@H]2O)[C@H](O)[C@H]1O)NC(=O)C[N+](C)(C)Cc1ccc([Si](F)(C(C)(C)C)C(C)(C)C)cc1)C(=O)Nc1ccc(C(=O)NCCC[C@@H]2C(=O)N[C@@H](CCCNC(=N)N)C(=O)N[C@@H](Cc3ccc4ccccc4c3)C(=O)NCC(=O)N[C@H](Cc3ccc(O)cc3)C(=O)N2C)cc1` [CXCR4-SiFA-7 [Ga]] (I: X5-[d(hCys)](X2)[dDap](DOTA)[Ahx][dDap][dR][dA][4Abz] / II: cyclo([dY][dNMeOrn]R[2Nal]G); amide I:C-II:2), the tissue uptake at 1 h in data set [1] (Blood, 1 h p.i., Jurkat xenograft, CB-17 SCID female mice, read-out: % iD/g Blood) stood at 0.85 %ID/g; in data set [1] (Bone, 1 h p.i., Jurkat xenograft, CB-17 SCID female mice, read-out: % iD/g Bone) it was 2.89 %ID/g; in data set [1] (Heart, 1 h p.i., Jurkat xenograft, CB-17 SCID female mice, read-out: % iD/g Heart), 1.13 %ID/g; in data set [1] (Intestine, 1 h p.i., Jurkat xenograft, CB-17 SCID female mice, read-out: % iD/g Intestine) it was 0.81 %ID/g; in data set [1] (Kidney, 1 h p.i., Jurkat xenograft, CB-17 SCID female mice, read-out: % iD/g Kidney) it was 11.1 %ID/g; in data set [1] (Liver, 1 h p.i., Jurkat xenograft, CB-17 SCID female mice, read-out: % iD/g Liver), 53.5 %ID/g. Besides, the tissue uptake at 1 h was found to be 2.13 %ID/g in data set [1] (Lung, 1 h p.i., Jurkat xenograft, CB-17 SCID female mice, read-out: % iD/g Lung); 0.26 %ID/g in data set [1] (Muscle, 1 h p.i., Jurkat xenograft, CB-17 SCID female mice, read-out: % iD/g Muscle); 0.51 %ID/g in data set [1] (Pancreas, 1 h p.i., Jurkat xenograft, CB-17 SCID female mice, read-out: % iD/g Pancreas); 6.96 %ID/g in data set [1] (Spleen, 1 h p.i., Jurkat xenograft, CB-17 SCID female mice, read-out: % iD/g Spleen); 0.63 %ID/g in data set [1] (Stomach, 1 h p.i., Jurkat xenograft, CB-17 SCID female mice, read-out: % iD/g Stomach); 0.67 %ID/g in data set [1] (Tumor, 1 h p.i., Jurkat xenograft, CB-17 SCID female mice, read-out: % iD/g Tumor).

With `C[C@@H](NC(=O)[C@@H](CCCNC(=N)N)NC(=O)[C@@H](CN)NC(=O)CCCCCNC(=O)[C@@H](CNC(=O)CN1CCN(CC(=O)O)CCN(CC(=O)O)CCN(CC(=O)O)CC1)NC(=O)CCCCC[N+]1=C(/C=C/C=C/C=C2/N(C)c3ccc(S(=O)(=O)O)cc3C2(C)C)C(C)(C)c2cc(S(=O)(=O)[O-])ccc21)C(=O)Nc1ccc(C(=O)NCCC[C@@H]2C(=O)N[C@@H](CCCNC(=N)N)C(=O)N[C@@H](Cc3ccc4ccccc4c3)C(=O)NCC(=O)N[C@H](Cc3ccc(O)cc3)C(=O)N2C)cc1` [[^natLu]CXCR4-OI-3, metal not drawn], the “Internalized in relation to 125I-Fc-131 [%]” value is 442 ± 12.1% in data set [3] (30 min) and 540 ± 42.7% in data set [3] (90 min). Besides, the “Cell-bound [%]” value came out at 5.39 ± 0.41% in data set [3] (30 min) and 5.36 ± 0.47% in data set [3] (90 min). The results for the “Internalized [%]” value in data set [3] (30 min) and in data set [3] (90 min) were 16.5 ± 0.19% and 25.2 ± 1.08%, respectively. For the same compound, the tissue uptake at 1 h was 1.9 %ID/g in data set [1] (% iD/g Blood); 1.1 %ID/g in data set [1] (% iD/g Bone); 1.39 %ID/g in data set [1] (% iD/g Heart); 0.85 %ID/g in data set [1] (% iD/g Intestine); 35 %ID/g in data set [1] (% iD/g Kidney); 36.3 %ID/g in data set [1] (% iD/g Liver). The tissue uptake at 1 h came to 4.28 %ID/g in data set [1] (% iD/g Lung); 0.33 %ID/g in data set [1] (% iD/g Muscle); 0.44 %ID/g in data set [1] (% iD/g Pancreas); 5.94 %ID/g in data set [1] (% iD/g Spleen); 1.43 %ID/g in data set [1] (% iD/g Stomach); 2.13 %ID/g in data set [1] (% iD/g Tumor).

In the case of `CN1C(=O)[C@@H](Cc2ccc(O)cc2)NC(=O)CNC(=O)[C@H](Cc2ccc3ccccc3c2)NC(=O)[C@H](CCCNC(=N)N)NC(=O)[C@H]1CCCNC(=O)c1ccc(CNC(=O)CN2CCN(CC(=O)O)CCN(CC(=O)O)CCN(CC(=O)O)CC2)cc1` [^68Ga-Pentixafor, cyclo(D-Tyr^1-D-[NMe](DOTA)-Orn^2Arg^3-Nal^4-Gly^5), metal not drawn, reference compound] (cyclo([dY][dNMeOrn]([4Amb-DOTA])R[2Nal]G)), the tissue uptake at 1 h is 1.29 %ID/g in data set [1] (% iD/g Blood); 0.48 %ID/g in data set [1] (% iD/g Bone); 0.56 %ID/g in data set [1] (% iD/g Heart); 0.43 %ID/g in data set [1] (% iD/g Intestine); 2.75 %ID/g in data set [1] (% iD/g Kidney); 1.59 %ID/g in data set [1] (% iD/g Liver). The tissue uptake at 1 h turned out to be 1.57 %ID/g in data set [1] (% iD/g Lung); 0.19 %ID/g in data set [1] (% iD/g Muscle); 0.14 %ID/g in data set [1] (% iD/g Pancreas); 1.48 %ID/g in data set [1] (% iD/g Spleen); 0.51 %ID/g in data set [1] (% iD/g Stomach); 7.58 %ID/g in data set [1] (% iD/g Tumor).
